Calls of active or inactive are those of the source. The rule behind the calls is not given here.

The values that follow come from ChEMBL document CHEMBL4732108, “Targeting the K11.1 (hERG) channel with allosteric modulators. Synthesis and biological evaluation of three novel series of LUF7346 derivatives” (Eur J Med Chem, 2021).

For one data set, the target named is hERG (KCNH2) (Homo sapiens, UniProt Q12809). The data set is described as follows: Displacement of [3H]dofetilide from human ERG stably expressed in HEK293 cell membranes assessed as residual binding level at 10 uM measured after 60 mins by microbeta liquid scintillation counting method relative to control. Also noted: species or system Membrane. To be noted: membranes of HEK293 cells stably expressing hERG, probe [3H]dofetilide, read-out: Activity. For orientation: In a radioligand displacement assay an active substance lowers the binding of a labelled ligand.

Data set [1] concerns Stem cell-derived cardiomyocyte. Kind of data set: Effect on human iPSC-derived cardiomyocytes assessed as change in field potential duration by microarray electrode based assay. It counts as functional.
For data set [2] the test system is unchanged. The data set is described as follows: Effect on human iPSC-derived cardiomyocytes assessed as reduction in beating rate by measuring change in RR interval at higher concentration by microarray electrode based assay. It counts as functional.
Data set [3] shares this test system. Kind of data set: Effect on human iPSC-derived cardiomyocytes assessed as suppression of dofetilide-induced increase in field potential duration by microarray electrode based assay. It is filed as functional.
For data set [4] the test system is unchanged. Kind of data set: Effect on dofetilide-induced reduction in RR interval in human iPSC-derived cardiomyocytes by microarray electrode based assay. It counts as functional.
Data set [5] shares this test system. Kind of data set: Effect on human iPSC-derived cardiomyocytes assessed as prolongation of field potential duration by microarray electrode based assay. It is filed as functional, tissue-based.
Data set [6] has as its target T1, Voltage-gated inwardly rectifying potassium channel KCNH2 (Homo sapiens, UniProt Q12809). The data set is described as follows: Channel blockade of human ERG stably expressed in HEK293 cells assessed as decrease in current density at 5 uM with -60 mV holding potential measured after 5 mins by whole cell patch clamp method. As to conditions: hek293, 5 min. In general terms: In patch-clamp work, channel activity is measured electrically.

For data set [7], the system named is Stem cell-derived cardiomyocyte. Kind of data set: Effect on human iPSC-derived cardiomyocytes assessed as reduction in beating rate by measuring change in RR interval at 30 uM by microarray electrode based assay. It counts as functional, tissue-based.
For data set [8], the target named is T1, Voltage-gated inwardly rectifying potassium channel KCNH2. Kind of data set: Displacement of [3H]dofetilide from human ERG stably expressed in HEK293 cell membranes assessed as unlabelled dofetilide IC50 at 10 uM measured after 60 mins by microbeta liquid scintillation counting method (reference value: 9.1 to 11.7 nM). Also noted: species or system Membrane.

For data set [9] the target is unchanged. Kind of data set: Displacement of [3H]dofetilide from human ERG stably expressed in HEK293 cell membranes assessed as unlabelled dofetilide IC50 at 3 uM measured after 60 mins by microbeta liquid scintillation counting method (reference value: 9.1 to 11.7 nM). Also noted: species or system Membrane.
The target is the same in data set [10]. Kind of data set: Displacement of [3H]dofetilide from human ERG stably expressed in HEK293 cell membranes assessed as unlabelled dofetilide IC50 at 1 uM measured after 60 mins by microbeta liquid scintillation counting method (reference value: 9.1 to 11.7 nM). Also noted: species or system Membrane.
Data set [11] concerns Stem cell-derived cardiomyocyte. The data set is described as follows: Effect on dofetilide-induced reduction in RR interval in human iPSC-derived cardiomyocytes at 10 to 30 uM by microarray electrode based assay. It is filed as functional. To be noted: dose 10-30 µM.
In data set [12] the target is T1, Voltage-gated inwardly rectifying potassium channel KCNH2. Kind of data set: Negative allosteric modulation of human ERG stably expressed in HEK293 cells assessed as increase in current density at 5 uM with -60 mV holding potential measured after 5 mins by whole cell patch clamp method. As to conditions: hek293, 5 min.
Data set [13] deals with Stem cell-derived cardiomyocyte. The data set is described as follows: Effect on human iPSC-derived cardiomyocytes assessed as suppression of dofetilide-induced increase in field potential duration at 10 to 30 uM by microarray electrode based assay. It is filed as functional. To be noted: dose 10-30 µM.
Data set [14] shares this test system. The data set is described as follows: Effect on human iPSC-derived cardiomyocytes assessed as shortening of field potential duration by microarray electrode based assay. It is filed as functional, tissue-based.

T1 sequence (Q12809 whole entry): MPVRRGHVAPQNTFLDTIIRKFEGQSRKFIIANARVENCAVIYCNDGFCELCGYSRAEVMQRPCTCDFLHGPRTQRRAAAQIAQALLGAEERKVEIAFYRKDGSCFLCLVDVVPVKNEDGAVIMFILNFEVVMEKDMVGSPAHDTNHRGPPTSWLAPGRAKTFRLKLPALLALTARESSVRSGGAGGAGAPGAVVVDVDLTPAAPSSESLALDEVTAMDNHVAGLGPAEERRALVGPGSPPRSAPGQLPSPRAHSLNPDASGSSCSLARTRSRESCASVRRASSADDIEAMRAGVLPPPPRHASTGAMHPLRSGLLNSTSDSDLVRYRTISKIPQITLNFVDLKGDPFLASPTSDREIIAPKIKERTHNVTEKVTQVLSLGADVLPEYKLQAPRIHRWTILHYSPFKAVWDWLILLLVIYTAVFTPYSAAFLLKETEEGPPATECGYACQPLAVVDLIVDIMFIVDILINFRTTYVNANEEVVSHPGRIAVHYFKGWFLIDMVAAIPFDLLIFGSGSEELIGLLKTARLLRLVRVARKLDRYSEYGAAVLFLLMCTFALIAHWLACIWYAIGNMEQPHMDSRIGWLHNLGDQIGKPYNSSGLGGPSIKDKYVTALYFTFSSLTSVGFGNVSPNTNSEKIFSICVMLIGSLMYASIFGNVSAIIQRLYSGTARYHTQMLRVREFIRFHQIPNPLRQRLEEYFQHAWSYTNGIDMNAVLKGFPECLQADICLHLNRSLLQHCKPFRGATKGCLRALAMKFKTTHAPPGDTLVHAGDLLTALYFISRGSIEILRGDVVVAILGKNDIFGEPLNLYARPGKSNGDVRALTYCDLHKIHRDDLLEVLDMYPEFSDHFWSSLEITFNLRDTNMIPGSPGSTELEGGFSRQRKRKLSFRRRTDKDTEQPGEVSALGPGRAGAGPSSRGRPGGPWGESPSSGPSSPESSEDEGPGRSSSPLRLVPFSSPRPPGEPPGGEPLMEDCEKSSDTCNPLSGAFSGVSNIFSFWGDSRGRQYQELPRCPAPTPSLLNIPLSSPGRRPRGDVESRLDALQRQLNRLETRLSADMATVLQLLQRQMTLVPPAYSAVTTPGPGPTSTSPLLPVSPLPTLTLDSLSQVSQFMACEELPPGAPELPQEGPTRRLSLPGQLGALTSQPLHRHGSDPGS
hERG (KCNH2), sequence (Q12809 whole entry): as above

On to `O=C(COc1ccc(C(=O)c2cc(Cl)ccc2Br)cc1)Nc1cc(C(=O)NCC2CC2)ccc1Cl`, for which the activity at 1 h, 10 µM at hERG (KCNH2) is 89%. The same measure, in the same setting: the figure for `O=C(COc1ccc(C(=O)c2cc(Cl)ccc2Br)cc1)Nc1cccc(C(=O)NCC2CCC2)c1` is 38%.

As to `N#Cc1cncc(NC(=O)COc2ccc(C(=O)c3cc(Cl)ccc3Br)cc2)c1`, the Activity entry in data set [1], in data set [3] and in data set [4] was “inactive” each time. Further, the Activity result in [2] is “Active”. For the compound `N#Cc1cccc(NC(=O)COc2ccc(C(=O)c3cc(Cl)ccc3Br)cc2)c1F`, at hERG (KCNH2), the activity at 1 h, 10 µM turned out to be 21%. As for `O=C(COc1ccc(C(=O)c2cc(Cl)ccc2Br)cc1)Nc1cccc(C(=O)NC2CC2)c1`, the activity at 1 h, 10 µM at hERG (KCNH2) worked out at 27%. On the same count and under the same terms, the figure for `O=C(COc1ccc(C(=O)c2cc(Cl)ccc2Br)cc1)Nc1cc(Cl)cc(C(=O)NCC2CC2)c1` is 36%; for `O=C(COc1ccc(C(=O)c2cc(Cl)ccc2Br)cc1)Nc1ccnc(Cl)c1` it is 52%. Regarding `Cc1ccc(NC(=O)COc2ccc(C(=O)c3cc(Cl)ccc3Br)cc2)cc1C#N`, the activity at 1 h, 10 µM at hERG (KCNH2) came out at 87%. On the same count and under the same terms, next, `COc1ccc(C#N)cc1NC(=O)COc1ccc(C(=O)c2cc(Cl)ccc2Br)cc1`: 28%; `CC(C)CNC(=O)c1cccc(NC(=O)COc2ccc(C(=O)c3cc(Cl)ccc3Br)cc2)c1`: 46%; `O=C(COc1ccc(C(=O)c2cc(Cl)ccc2Br)cc1)Nc1ccnc(C(=O)NCC2CC2)c1`: 53%. Same read-out and setting: next, `N#Cc1cc(NC(=O)COc2ccc(C(=O)c3cc(Cl)ccc3Br)cc2)ccc1Cl`: 86%. Take `O=C(COc1ccc(C(=O)c2cc(Cl)ccc2Br)cc1)Nc1cncc(C(=O)NCC2CC2)c1`: the Activity entry in data set [5], in data set [2] and in data set [7] was “Active” each time. Further, the Activity result in data set [6] is “Active”. In addition, the activity at 1 h, 10 µM on hERG (KCNH2) was 2%. Regarding `Cc1cc(NC(=O)COc2ccc(C(=O)c3cc(Cl)ccc3Br)cc2)ccn1`, in data set [5], the Activity entry is “Active”. The Activity result in data set [6] is “Active”. Further, the Activity entry in [2], in [3] and in [4] was “inactive” each time. For the same compound, on hERG (KCNH2), the activity at 1 h, 10 µM is 9%. As to `CNC(=O)c1cccc(NC(=O)COc2ccc(C(=O)c3cc(Cl)ccc3Br)cc2)c1`, the activity at 1 h, 10 µM on hERG (KCNH2) amounted to 39.8%. On the same count and under the same terms, the figure for `O=C(COc1ccc(C(=O)c2cc(Cl)ccc2Br)cc1)Nc1cccnc1` is 28.2%; for `O=C(COc1ccc(C(=O)c2cc(Cl)ccc2Br)cc1)Nc1cccc(C(=O)NCC2CC2)c1Cl` it is -2%; for `O=C(COc1ccc(C(=O)c2cc(Cl)ccc2Br)cc1)Nc1ccc(Cl)c(C(=O)NCC2CC2)c1` it is 20%. One may read the IC50 as the midpoint of a concentration-inhibition curve. For the compound `O=C(COc1ccc(C(=O)c2cc(Cl)ccc2Br)cc1)Nc1ccncc1`, in data set [8], the IC50 turned out to be 43.7 nM. At hERG (KCNH2), the activity at 1 h, 10 µM was determined as 26.1%. Take `O=C(COc1ccc(C(=O)c2cc(Cl)ccc2Br)cc1)Nc1ccnc(F)c1`: the activity at 1 h, 10 µM on hERG (KCNH2) amounted to 56.1%. For the compound `Cc1cnccc1NC(=O)COc1ccc(C(=O)c2cc(Cl)ccc2Br)cc1`, in [9], the 50% inhibitory concentration (IC50) worked out at 14.1 nM. In addition, the activity at 1 h, 10 µM at hERG (KCNH2) stood at 15%.

On to `N#Cc1cccc(NC(=O)COc2ccc(C(=O)c3cc(Cl)ccc3Br)cc2)c1`, for which the activity at 1 h, 10 µM on hERG (KCNH2) turned out to be 20%. Further, the IC50 in data set [10] amounted to 28.3 nM.

Take `N#Cc1cc(Cl)cc(NC(=O)COc2ccc(C(=O)c3cc(Cl)ccc3Br)cc2)c1`: on hERG (KCNH2), the activity at 1 h, 10 µM was 36%. Turning to `N#Cc1ccc(Cl)c(NC(=O)COc2ccc(C(=O)c3cc(Cl)ccc3Br)cc2)c1`, on hERG (KCNH2), the activity at 1 h, 10 µM is 44%. The same measure, in the same setting: the figure for `N#Cc1cc(NC(=O)COc2ccc(C(=O)c3cc(Cl)ccc3Br)cc2)ccc1F` is 22.7%. As for `O=C(COc1ccc(C(=O)c2ccccc2Br)cc1)Nc1cccnc1`, the Activity result in [11] is “inactive”. The Activity result is “Active” in [12] and “Dose-dependent effect” in [14]. Moreover, the Activity entry in [2] and in data set [13] was “Active” in each case. The activity at 1 h, 10 µM on hERG (KCNH2) turned out to be 29.8%. `O=C(COc1ccc(C(=O)c2cc(Cl)ccc2Br)cc1)Nc1cccc(C(=O)NCC2CC2)c1`: the activity at 1 h, 10 µM at hERG (KCNH2) is 36.6%. Still for that read-out and setting: next, `COc1cc(NC(=O)COc2ccc(C(=O)c3cc(Cl)ccc3Br)cc2)ccn1`: 90%; `COc1ccc(NC(=O)COc2ccc(C(=O)c3cc(Cl)ccc3Br)cc2)cc1C#N`: 60%.
